Data as given in ChEMBL document CHEMBL4765247, “Novel mouse GABA uptake inhibitors with enhanced inhibitory activity toward mGAT3/4 and their effect on pain threshold in mice” (Eur J Med Chem, 2020).

Assays:
Format in all cases: cell-based
[1] = target: T1, Sodium- and chloride-dependent betaine transporter (Homo sapiens, UniProt P48065); assay: Inhibition of human BGT1 expressed in tsA201 cells assessed as inhibition of [3H]GABA uptake by liquid scintillation method
T1 sequence (P48065 whole entry): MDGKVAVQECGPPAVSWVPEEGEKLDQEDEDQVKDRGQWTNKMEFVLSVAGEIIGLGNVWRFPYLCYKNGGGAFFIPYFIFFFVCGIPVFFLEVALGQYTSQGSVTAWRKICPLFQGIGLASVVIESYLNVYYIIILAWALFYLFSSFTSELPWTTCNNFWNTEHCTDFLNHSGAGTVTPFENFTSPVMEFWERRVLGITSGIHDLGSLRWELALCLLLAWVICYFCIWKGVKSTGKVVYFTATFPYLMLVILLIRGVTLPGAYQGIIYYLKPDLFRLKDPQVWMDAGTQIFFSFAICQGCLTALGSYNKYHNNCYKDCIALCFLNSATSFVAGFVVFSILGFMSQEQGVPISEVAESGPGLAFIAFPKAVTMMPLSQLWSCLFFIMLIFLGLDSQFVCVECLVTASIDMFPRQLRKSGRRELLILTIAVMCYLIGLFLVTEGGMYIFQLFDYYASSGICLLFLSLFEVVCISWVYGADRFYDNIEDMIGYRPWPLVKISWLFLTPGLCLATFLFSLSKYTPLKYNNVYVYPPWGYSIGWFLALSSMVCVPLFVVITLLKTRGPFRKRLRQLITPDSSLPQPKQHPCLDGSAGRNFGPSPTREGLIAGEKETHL

[2] = target: Sodium- and chloride-dependent GABA transporter 1 (Homo sapiens, UniProt P30531); assay: Inhibition of human […] expressed in tsA201 cells assessed as inhibition of [3H]GABA uptake by liquid scintillation method
[3] = target: T2, Sodium- and chloride-dependent GABA transporter 3 (Homo sapiens, UniProt P48066); assay: Inhibition of human […] expressed in tsA201 cells assessed as inhibition of [3H]GABA uptake by liquid scintillation method
T2 sequence (P48066 whole entry): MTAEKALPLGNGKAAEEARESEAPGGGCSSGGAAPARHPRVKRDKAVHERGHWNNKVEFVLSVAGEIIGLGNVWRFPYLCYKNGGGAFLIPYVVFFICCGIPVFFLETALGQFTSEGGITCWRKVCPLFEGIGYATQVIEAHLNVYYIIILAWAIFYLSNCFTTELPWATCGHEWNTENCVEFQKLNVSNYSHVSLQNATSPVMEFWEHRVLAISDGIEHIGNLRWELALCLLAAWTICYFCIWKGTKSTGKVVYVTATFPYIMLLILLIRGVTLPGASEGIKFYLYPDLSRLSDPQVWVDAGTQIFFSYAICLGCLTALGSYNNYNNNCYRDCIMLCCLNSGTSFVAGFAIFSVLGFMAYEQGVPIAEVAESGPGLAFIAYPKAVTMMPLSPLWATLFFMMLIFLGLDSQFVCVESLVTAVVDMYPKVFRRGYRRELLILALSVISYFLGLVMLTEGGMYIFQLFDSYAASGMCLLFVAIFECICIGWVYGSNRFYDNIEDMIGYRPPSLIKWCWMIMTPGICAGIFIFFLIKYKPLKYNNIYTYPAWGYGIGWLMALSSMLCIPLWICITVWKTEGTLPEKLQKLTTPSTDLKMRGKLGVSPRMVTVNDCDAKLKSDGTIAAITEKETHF

[4] = target: T3, Sodium- and chloride-dependent GABA transporter 2 (Homo sapiens, UniProt Q9NSD5); assay: Inhibition of human […] expressed in tsA201 cells assessed as inhibition of [3H]GABA uptake by liquid scintillation method
T3 sequence (Q9NSD5 whole entry): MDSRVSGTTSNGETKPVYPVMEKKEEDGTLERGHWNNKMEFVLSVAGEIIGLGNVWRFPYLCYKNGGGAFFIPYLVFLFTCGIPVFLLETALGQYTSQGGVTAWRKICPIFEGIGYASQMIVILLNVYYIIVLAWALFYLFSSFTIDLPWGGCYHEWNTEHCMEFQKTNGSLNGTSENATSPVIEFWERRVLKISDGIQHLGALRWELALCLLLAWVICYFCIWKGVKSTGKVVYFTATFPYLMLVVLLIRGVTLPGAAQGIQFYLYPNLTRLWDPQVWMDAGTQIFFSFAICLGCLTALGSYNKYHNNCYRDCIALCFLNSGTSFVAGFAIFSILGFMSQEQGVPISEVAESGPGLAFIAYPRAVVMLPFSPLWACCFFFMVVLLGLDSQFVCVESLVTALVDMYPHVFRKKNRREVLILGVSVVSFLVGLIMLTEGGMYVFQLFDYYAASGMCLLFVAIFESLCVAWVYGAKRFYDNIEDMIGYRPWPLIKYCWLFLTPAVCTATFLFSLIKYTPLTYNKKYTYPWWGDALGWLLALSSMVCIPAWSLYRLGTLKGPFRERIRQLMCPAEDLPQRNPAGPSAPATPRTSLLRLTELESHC

Sodium- and chloride-dependent GABA transporter 1, sequence (P30531 whole entry): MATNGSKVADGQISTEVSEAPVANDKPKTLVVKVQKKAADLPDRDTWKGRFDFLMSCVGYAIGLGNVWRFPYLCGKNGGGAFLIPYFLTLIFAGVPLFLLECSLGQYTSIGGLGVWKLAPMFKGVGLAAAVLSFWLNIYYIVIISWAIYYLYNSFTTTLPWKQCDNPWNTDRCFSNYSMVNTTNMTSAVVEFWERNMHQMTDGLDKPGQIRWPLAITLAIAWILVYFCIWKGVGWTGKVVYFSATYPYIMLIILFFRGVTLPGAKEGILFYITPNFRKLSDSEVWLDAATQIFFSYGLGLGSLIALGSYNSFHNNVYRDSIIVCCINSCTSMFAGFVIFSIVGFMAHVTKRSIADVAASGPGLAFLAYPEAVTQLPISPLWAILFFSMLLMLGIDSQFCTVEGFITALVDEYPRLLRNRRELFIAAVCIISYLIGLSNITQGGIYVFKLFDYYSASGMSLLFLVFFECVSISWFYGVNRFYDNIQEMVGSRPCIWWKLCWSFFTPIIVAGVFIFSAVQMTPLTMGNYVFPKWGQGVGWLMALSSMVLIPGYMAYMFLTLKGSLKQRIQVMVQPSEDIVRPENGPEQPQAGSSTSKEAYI

SMILES: NCC(N)C(=O)O (centres undefined)
- IC50 [1]: 631 µM
- IC50 [2]: > 1000 µM
- IC50 [3]: 31.6 µM
- IC50 [4]: 39.8 µM
